Assays:
Type in all cases: cell-based, Pseudomonas aeruginosa
[1] = tested on: 24 h old PAO1 biofilm; experiment: Crystal violet biofilm dispersion assay, maltose derivatives (Example 1); details: concentration not given
Description: Chemical dispersion of already formed biofilm is often more relevant to medical application, and more challenging than biofilm inhibition assays, for which the agents are introduced at the onset of an experiment. We screened the ability of maltose derivatives at 110 μM to disperse 24 h old biofilm.
PAO1 was allowed to grow for 24 h at 37° C. After 24 h, bacterial culture was pipetted out and replaced with 200 μL of 110 μM maltose hydrocarbons and sterile water (control). After 1 h treatment with maltose hydrocarbons, biofilm was fixed and quantified using crystal violet dye as described above. The amount of dispersed biofilm was determined via comparison of the amount of biofilm at 24 h in the presence of maltose hydrocarbons versus the amount of biofilm in the “no compound” positive control at 24 h (wells with water treatment).
(§1) Predetermined amounts maltose derivatives stock solution was added to the 200 μL bacterial culture in 96 well plate so that the final concentration of the agent reaches the desired values of 1, 5, 10, 20, 40, 85, 113, 140 μM. Biofilm inhibition and dispersion assay was carried as described previously.

[2] = tested on: PAO1 biofilm; experiment: Crystal violet dye based biofilm inhibition assay, maltose derivatives (Example 1); details: for Inhibition of PAO1 biofilm: 110 μM, 24 h, CV assay; for Anti-biofilm activity (inhibition): concentration not given
Description: A crystal violet (CV) assay was used to measure the amount of PAO1 biofilm formed after 24 h of bacterial inoculation. The fluorescence of green fluorescent proteins (GFP) expressed by PAO1-GFP was measured to directly quantify bacterial adhesion on polystyrene black 96 well plates with and without maltose derivatives after 2 h of bacterial inoculation. To evaluate the potential of maltose derivatives as both anti-biofilm and anti-adhesion agents, they were compared to a brominated furanone (BF8) known to inhibit biofilm formation, and two generic surfactants, sodium dodecyl sulfate (SDS) and tetra (ethylene glycol) monododecyl ether (C12EG4OH). […] P. aeruginosa strain PAO1-EGFP that constitutively producing green fluorescent protein was allowed to form biofilm on sterile steel coupons.
Inhibitory effect of all the maltose hydrocarbons on P. aeruginosa biofilm formation was determined by crystal violet dye based biofilm inhibition assays. Overnight culture of wild type P. aeruginosa (PAO1) was sub cultured to an OD600 of 0.01 into the 95:5 M9+:Lb medium. 200 μL of the sub culture was aliquoted into the wells of 96 well polystyrene microtiter plate when it reached the OD600 of 0.1. Predetermined concentrations of the test compounds were then added to the respective wells containing sub culture. Sample plates were wrapped in GLAD Press n′ Seal® followed by incubation under stationary conditions for 24 h at 37° C. After incubation the media was discarded and the plates were washed with water and dried for 1 h at 37° C. The sample plates were stained with 200 μL of 0.1% aqueous solution of crystal violet (CV) and followed by incubation at ambient temperature for 20 min. The CV stain was then discarded and the plates were washed with water. The remaining biofilm adhered stain was re-solubilized with 200 μL of 30% acetic acid. After the stain was dissolved (15 minutes), 100 μL of the solubilized CV was transferred from each well into the corresponding wells of a new polystyrene microtiter dish. Biofilm inhibition was quantified by measuring the OD600 of each well in which a negative control lane wherein no biofilm was formed served as a background and was subtracted out. The percent inhibition was calculated by the comparison of the OD600 for biofilm grown in the absence of compound (control) versus biofilm grown in the presence of compound under identical conditions.
as §1

[3] = tested on: rhl quorum sensing system; experiment: rhl quorum sensing gene reporter assay (prhlI-LVAgfp); details: natural autoinducers present
From the text: The ability of the maltoside derivatives to antagonize the two quorum sensing circuits las and/or rhl of P. aeruginosa was investigated by using two reporter strains (PAO1/plasI-LVAgfp, PAO1/prhlI-LVAgfp). These reporter strains produce natural AHL signals, and binding of such signal molecules to the Lux-type receptor proteins ([…]) activates the expression of green fluorescent protein (GFP) encoded by the plasmid.
One of the recent approach for a nonmicrobicidal control of biofilm aims to develop agents that disrupt bacterial cell-to-cell communication by acting as mimics to the natural molecules (autoinducer) that bind […], which are encoded by las and rhl gene. The binding of these mimics with lasR and rhlR proteins either activates or represses the expression of lasI or rhlI.^6 In gene reporter assay, the expression of lasI and rhlI proteins is quantified by measuring expression of green fluorescent protein (GFP) fused to lasI and rhlI genes.^5 Two reporter strains of Pseudomonas aeruginosa (PAO1/plasI_LVAgfp and PAO1/prhlI_LVAgfp) express green fluorescence protein on activation of las or rhl quorum sensing system. The activation or repression of las or rhl quorum sensing system in PA was tested by various DSHs.
Strains PAO1/plasI-LVAgfp and PAO1/prhlI-LVAgfp were grown overnight in LB-media that was supplemented with 300 μg/mL carbenicillin and after 16 hours, the bacteria were sub cultured in LB media (supplemented with 300 μg/mL carbenicillin) to OD600 as 0.01. The OD600 was allowed to reach 0.1 and then 200 μL of culture was aliquoted into the wells of 96-well microtiter plate. DSHs were then added to assigned wells at two different concentrations (85 μM and 160 μM). No agent was added to the well for positive control. The plates then incubated at 37° C. for 24 h in a rotary shaking incubator (250 rpm). The culture from each well was then transferred to corresponding wells of a black walled flat-bottom, 96-well plate (μClear, Greiner-One 655096). The fluorescence and OD absorbance in each well was measured by Synergy 2 multi-mode microplate reader with aGen5 data analysis software. […] Fluorescence was measured at an excitation wavelength of 500 nm and an emission wavelength of 540 nm.
For an antagonist assay, overnight culture of P. aeruginosa PAO1/plasI-LVAgfp (las system) or PAO1/prhlI-LVAgfp (rhl system) in LB broth (supplemented with 300 μg/mL carbenicillin) was grown from a single colony on a LB agar plate supplemented with 300 μg/mL carbenicillin. […] The fluorescence and OD absorbance in each well was measured by Synergy 2 multi-mode microplate reader with Gen5 data analysis software. […] Fluorescence was measured at an excitation wavelength of 500 nm and an emission wavelength of 540 nm. […]

SMILES	Anti-biofilm activity (dispersion) [1]	Inhibition of PAO1 biofilm [2]	Anti-biofilm activity (inhibition) [2]	Change of GFP fluorescence, rhl reporter strain PAO1/prhlI-LVAgfp (antagonist assay) [3]	Change of GFP fluorescence, rhl reporter strain PAO1/prhlI-LVAgfp (antagonist assay) ([3]; listed as 13: SFαC)	Change of GFP fluorescence, rhl reporter strain PAO1/prhlI-LVAgfp (antagonist assay) ([3]; listed as 12: SFβC)
CCCCCCCCCCCCOCCOCCOCCOCCO [C12EG4OH, tetra (ethylene glycol) monododecyl ether, reference compound]	did not show any anti-biofilm activities	did not show any noticeable biofilm inhibition	did not show any anti-biofilm activities			
CCCCCCCCCCCCOS(=O)(=O)[O-].[Na+] [SDS, sodium dodecyl sulfate, reference compound]	did not show any anti-biofilm activities	did not show any noticeable biofilm inhibition	did not show any anti-biofilm activities			
CC(C)CCCC(C)CCCC(C)CCO[C@H]1O[C@H](CO)[C@@H](O[C@@H]2O[C@H](CO)[C@@H](O)[C@H](O)[C@H]2O)[C@H](O)[C@H]1O (stereo partly drawn) [SFαC (13), saturated farnesyl-α-cellobioside]				neither SFβC (12) nor SFαC (13) caused a significant change in the fluorescence	no significant change in the fluorescence	
CC(C)CCCC(C)CCCC(C)CCO[C@@H]1O[C@H](CO)[C@@H](O[C@@H]2O[C@H](CO)[C@@H](O)[C@H](O)[C@H]2O)[C@H](O)[C@H]1O (stereo partly drawn) [SFβC (12), saturated famesyl-β-cellobioside]				neither SFβC (12) nor SFαC (13) caused a significant change in the fluorescence		no significant change in the fluorescence

From US11357786B2, “Synthetic disugar hydrocarbons as natural analogs to control microbial behaviors” (Syracuse University, priority 2014, dated 2022)
